Data on one molecule can be found in US11299715B2, “Use of iNOS inhibitors to increase viral yield in culture” (priority 2013, dated 2022).

Experiment [1] has as its system NOS1 = nNOS. In words: Affymetrix Gen Array, NOS1 expression in 293 cells. Conditions: for NOS1 expression, ATA: ATA alone. It is filed as cell-based, human. The method, then:
(§1) Confluent 293 cells (2.4×10^6 cells in a 75 cm^2 flask) were cultured in DMEM+10% FCS for approximately 20 hrs and were then infected with one plaque forming unit per cell (PFU/cell) of HSV-1 MacIntyre Strain for 90 min. ATA at a concentration 20 μM (final) was added 90 min post-infection. The infected cells were harvested at 24 h after infection. Total RNA of sufficient quality and quantity was isolated from suspension using RNeasy Plus Mini Kit (QIAGEN, Valencia, Calif.) according to the manufacturer's instructions. Whole genome expression profiling was performed on Affymetrix Human U133 Plus 2.0 Array by the Asuragen, Inc. 3 μg total RNA was provided as input material.
(§2) Overall, RNA quality assessed on the bioanalyzer had RIN values of >9. Array hybridization and scaling factors were within passing quality control range. After scanning, raw expression CEL files were processed with Affymetrix Expression Console vs.1.1.2 (affymetrix.com). Each CEL file was processed with Robust Multichip Analysis (RMA) and a summarized table was exported as a text file. All downstream genomics and statistical analyses were done with JMP Genomics (version 5) (jmp.com/software/genomics). First, a filtering step was applied to filter-out low expression, specifically, those values below 6 in log^2 mode in at least 2 out of 8 samples. Out of 54,675 total Affy U133 Plus2 probes, 41,569 (76%) probes remained after the cutoff. Two positive control samples were also seen, human brain and pooled human universal reference RNA, respectively, that hybridized well. For future analysis, these two samples were excluded.
The first principle component separation (91.7%) is therefore explained by the effect of HSV versus Vehicle. Data was median-normalized across each probe to have a median signal of 0. ANOVA was performed to find significant differential transcripts between HSV versus Vehicle, ATA versus Vehicle, […] versus Vehicle, and HSV+ATA versus HSV alone. Multiple testing corrections were not included, and significant genes were considered less that p-value of 0.01.
To identify cell response gene signatures to wtHSV-1 McIntyre infection, transcriptional profiling was done using Affymetrix Human U133 Plus 2.0 Array with 293 cells that were either mock-treated, ATA-treated (ATA), wtHSV-1 McIntyre-infected (HSV) or ATA-treated and wtHSV-1 McIntyre-infected (HSV&ATA) for 24 h. Gene expression changes induced by infection or ATA treatment were identified by referencing the gene expression level for each probe to that corresponding in the uninfected cells sample. HSV-1 infection alone had strong impact on the gene expression profile of 293 cells when compared to untreated cells gene profile.

The subject of experiment [2] is rAAV-GFP vector. In words: rAAV production by rHSV-rep2/cap2 and rHSV-EGFP co-infection of 293 cells. It is filed as cell-based, AAV. As to the method: 293 cells (2.5×10^6) were simultaneously co-infected with both rHSV-rep2/cap2 and rHSV-EGFP vectors as described by Kang et al., Gene Ther (2009) 16:229-239. At 2-4 hr post infection, infectious medium was exchanged with DMEM+10% FBS equivalent to double the preinfection culture volume. At the time of harvest, the cell pellet was frozen at −80° C. DRP titers were quantified by real-time polymerase chain reaction (qPCR) in a96-well block thermocycler (Applied Biosystems; 7500 Real Time PCR system). Crude samples were subjected to three cycles of freezing and thawing, then incubated in the presence of Benzonase (250 U/ml), 2 mM MgCl2, 1% final concentration protein grade Tween 80 (Calbiochem) and incubated at 37° C. for 60 min, followed by 0.25% Trypsin (Gibco) digestion at 50° C. for 60 min. Finally, treatment with DNase I (50 U/ml; Promega) at 37° C. for 30 min, and then denatured at 95° C. for 20 min. Linearized plasmidpDC67/+SV40 was used to generate standard curves. The primer-probe set was specific for the simian virus 40 (SV40) poly(A) sequence: rAAV-F: 5′-[…]-3′ (SEQ ID NO:4); rAAV-R: 5′-[…]-3′ (SEQ ID NO:5); rAAV-Probe: 5′ 6-FAM-[…]-TAMRA-3′ (SEQ ID NO:6).
In order to determine whether the presence of ATA during HSV production impacted the yield of rAAV virions produced using HSV vectors, the following experiment was performed showing rAAV titers affected by ATA residue present from rHSV-1 stocks produced in 293 cells (FIG. 5A). […] One-way ANOVA; Tukey's-test:*p<0.05; 20 μM ATA vs. No ATA; n=4 independent experiments.
This effect was not observed when the ATA concentrations were higher then 20 μM (FIG. 5B).

In experiment [3] the test system is rHSV-1 d27-1 (d27-1) vector. The experiment in a line: ATA-HSV protocol: rHSV-1 d27-1 vector yield in V27 cell supernatants. The format is cell-based, HSV-1. Conditions: V27 cells, n=10, ATA 50 μM at Step 1, final 20 μM.
For experiment [4], the system named is NOS2 = iNOS. In words: Affymetrix Gen Array, NOS2 expression in 293 cells. The format is cell-based, human. Conditions: AF049656. The method, then: as §1
as §2, with “Out of 54,675 total Affy U133 Plus2 probes, 41,569 (76%) probes remained after the cutoff. Two positive control samples were also seen, human brain and pooled human universal reference RNA, respectively, that hybridized well. For future analysis, these two samples were excluded.” left out

Experiment [5] has as its system NOS3 = eNOS. In words: Affymetrix Gen Array, NOS3 expression in 293 cells. It is filed as cell-based, human. Conditions: probe 205581_s_at. As to the method:
as §1
as §2, with “Out of 54,675 total Affy U133 Plus2 probes, 41,569 (76%) probes remained after the cutoff. Two positive control samples were also seen, human brain and pooled human universal reference RNA, respectively, that hybridized well. For future analysis, these two samples were excluded.” left out

`O=C(O)C1=CC(=C(c2ccc(O)c(C(=O)O)c2)c2ccc(O)c(C(=O)O)c2)C=CC1=O` [ATA, 5-((3-carboxy-4-hydroxyphenyl)(3-carboxy-4-oxo-2,5-cyclohexadien-1-ylidene)methyl)-2-hydroxybenzoic acid]: the “NOS1 expression, ATA” value in experiment [1] (probe 207310_s_at) amounted to 1; in experiment [1] (probe 240911_at), 1.02. Moreover, the “NOS1 expression, HSV + ATA” value in experiment [1] (probe 207310_s_at, HSV alone 2.79) was found to be 1.67; in experiment [1] (probe 240911_at, HSV alone 1.71), 1.5. For the same molecule, the “rAAV titer, ATA spiked into 293 cell media during co-infection” value in experiment [2] (10 μM ATA, 2 hrs co-infection step) is “increase”. The “rAAV titers using HSV stock prepared with 20 μM ATA” value in experiment [2] (20 μM ATA added during infection) was “slightly increased”. In experiment [2] (ATA higher than 20 μM spiked into 293 cell media), the “rAAV titer increase at higher spiked ATA concentrations” value is “not observed”. The “influence of ATA in rHSV-1 stocks on rAAV yield” value in experiment [2] (ATA present in rHSV-1 stocks) is reported as “did not negatively influence”. For the same molecule, the “increase of rAAV DRP/ml titer versus No ATA control” value in experiment [2] (rHSV-rep2/cap2 stock prepared with 20 μM ATA (Step 1), about 3 μM ATA during rAAV production, n=4) is given as 1.3 times. Also, in experiment [2] (stock prepared with 12 μM ATA, n=4), the “rAAV titer with rHSV-rep2/cap2 stock prepared with 12 μM ATA” value is “No significant rAAV titer increase”. In experiment [3] (6-well plates, MOI 0.15), the “increase of d27-1 titer after ATA addition” value is 6.1 times. The “d27-1 titer after ATA addition” value in experiment [3] (without ATA 5.4×10^7) is reported as 1.1×10^8 DRP/ml. Further, in experiment [4] (ATA alone), the “NOS2 expression, ATA” value was −1.03. Further, the “NOS2 expression, HSV + ATA” value in experiment [4] (HSV + ATA, HSV alone 2.05) came to 1.72. Besides, the “NOS3 expression, ATA” value in experiment [5] (ATA alone) is 1.24. Also, in experiment [5] (HSV + ATA, HSV alone 2.45), the “NOS3 expression, HSV + ATA” value was determined as 1.94.
